Laboratory results published in ChEMBL document CHEMBL3885881, “DrugMatrix”.

Organism: Rattus norvegicus
Test: DrugMatrix - Regimen: Daily Repeat
Type: toxicity, organism-based, Sprague-Dawley
Set-up: regimen Daily Repeat, gender Male, age 6-8 weeks
Conditions: in vivo, po, route oral GAVAGE, […]; for ABSOLUTE BASOPHIL / ABSOLUTE EOSINOPHIL / ABSOLUTE LYMPHOCYTE / ABSOLUTE MONOCYTE / ABSOLUTE SEGMENTED NEUTROPHIL / BASOPHIL / EOSINOPHIL / ERYTHROCYTE COUNT / HEMATOCRIT / HEMOGLOBIN / LEUKOCYTE COUNT / LYMPHOCYTE / MEAN CORPUSCULAR HEMOGLOBIN / MEAN CORPUSCULAR HEMOGLOBIN CONCENTRATION / MEAN CORPUSCULAR VOLUME / MONOCYTE / NEUTROPHIL / NUCLEATED RED BLOOD CELLS / PLATELET COUNT: tissue Blood; for ALANINE AMINOTRANSFERASE / ALBUMIN / ALKALINE PHOSPHATASE / ASPARTATE AMINOTRANSFERASE / BLOOD UREA NITROGEN / CARBON DIOXIDE / CHLORIDE / CHOLESTEROL / CREATINE PHOSPHOKINASE / CREATININE / GLUCOSE / LACTATE DEHYDROGENASE / LIPASE / PHOSPHORUS / POTASSIUM / SODIUM / TOTAL BILIRUBIN / TOTAL PROTEIN / URIC ACID: tissue Plasma
[1] = 100 mg/kg, 120 h, dose level Low, time 5 day
[2] = 448 mg/kg, 72 h, dose level High, time 3 day
[3] = 448 mg/kg, 120 h, dose level High, time 5 day

Q: For `CC(C)(Oc1ccc(Cl)cc1)C(=O)O` [CLOFIBRIC ACID], which “ABSOLUTE BASOPHIL” value [1] is on record?
A: 0 CELLS/uL

Q: And the “ABSOLUTE EOSINOPHIL” value [1]?
A: 54.67 CELLS/uL

Q: What about the “ABSOLUTE LYMPHOCYTE” value [1] of the same compound?
A: 12665.33 CELLS/uL

Q: What about the “ABSOLUTE MONOCYTE” value [1] of the same compound?
A: 34.33 CELLS/uL

Q: And the “ABSOLUTE SEGMENTED NEUTROPHIL” value [1]?
A: 1712.33 CELLS/uL

Q: And the BASOPHIL [1]?
A: 0%

Q: What about the EOSINOPHIL [1] of the same compound?
A: 0.33%

Q: And the “ERYTHROCYTE COUNT” value [1]?
A: 5.75 x10E6/uL

Q: And the HEMATOCRIT [1]?
A: 35.5%

Q: What about the HEMOGLOBIN [1] of the same compound?
A: 14.03 G/DL

Q: What about the “LEUKOCYTE COUNT” value [1] of the same compound?
A: 14.47 x10E3/uL

Q: What about the LYMPHOCYTE [1] of the same compound?
A: 87%

Q: And the “MEAN CORPUSCULAR HEMOGLOBIN” value [1]?
A: 24.43 pg

Q: What about the “MEAN CORPUSCULAR HEMOGLOBIN CONCENTRATION” value [1] of the same compound?
A: 39.53 G/DL

Q: What about the “MEAN CORPUSCULAR VOLUME” value [1] of the same compound?
A: 61.77 fL

Q: And the MONOCYTE [1]?
A: 0.33%

Q: What about the NEUTROPHIL [1] of the same compound?
A: 12.33%

Q: What about the “NUCLEATED RED BLOOD CELLS” value [1] of the same compound?
A: 0.33 /100WBC

Q: What about the “PLATELET COUNT” value [1] of the same compound?
A: 1147.33 x10E3/uL

Q: What about the “ALANINE AMINOTRANSFERASE” value [1] of the same compound?
A: 63.67 u/L

Q: What about the ALBUMIN [1] of the same compound?
A: 4.37 G/DL

Q: What about the “ALKALINE PHOSPHATASE” value [1] of the same compound?
A: 342 u/L

Q: And the “ASPARTATE AMINOTRANSFERASE” value [1]?
A: 93.33 u/L

Q: And the “BLOOD UREA NITROGEN” value [1]?
A: 15 mg/dL

Q: What about the “CARBON DIOXIDE” value [1] of the same compound?
A: 28 mmol/L

Q: What about the CHLORIDE [1] of the same compound?
A: 101.33 MEQ/L

Q: What about the CHOLESTEROL [1] of the same compound?
A: 50.67 mg/dL

Q: What about the “CREATINE PHOSPHOKINASE” value [1] of the same compound?
A: 370.33 u/L

Q: And the CREATININE [1]?
A: 0.2 mg/dL

Q: And the GLUCOSE [1]?
A: 145.33 mg/dL

Q: And the “LACTATE DEHYDROGENASE” value [1]?
A: 275.67 u/L

Q: What about the LIPASE [1] of the same compound?
A: 9.67 u/L

Q: What about the PHOSPHORUS [1] of the same compound?
A: 11.03 mg/dL

Q: And the POTASSIUM [1]?
A: 5.96 MEQ/L

Q: And the SODIUM [1]?
A: 142.3 MEQ/L

Q: And the “TOTAL BILIRUBIN” value [1]?
A: 0.2 mg/dL

Q: And the “TOTAL PROTEIN” value [1]?
A: 5.73 G/DL

Q: And the “URIC ACID” value [1]?
A: 1.23 mg/dL

Q: And the “ABSOLUTE BASOPHIL” value [2]?
A: 0 CELLS/uL

Q: And the “ABSOLUTE EOSINOPHIL” value [2]?
A: 0 CELLS/uL

Q: And the “ABSOLUTE LYMPHOCYTE” value [2]?
A: 10222.33 CELLS/uL

Q: What about the “ABSOLUTE MONOCYTE” value [2] of the same compound?
A: 204.67 CELLS/uL

Q: What about the “ABSOLUTE SEGMENTED NEUTROPHIL” value [2] of the same compound?
A: 1606.33 CELLS/uL

Q: And the BASOPHIL [2]?
A: 0%

Q: What about the EOSINOPHIL [2] of the same compound?
A: 0%

Q: What about the “ERYTHROCYTE COUNT” value [2] of the same compound?
A: 5.53 x10E6/uL

Q: What about the HEMATOCRIT [2] of the same compound?
A: 33.9%

Q: And the HEMOGLOBIN [2]?
A: 13.1 G/DL

Q: And the “LEUKOCYTE COUNT” value [2]?
A: 12.03 x10E3/uL

Q: What about the LYMPHOCYTE [2] of the same compound?
A: 85%

Q: What about the “MEAN CORPUSCULAR HEMOGLOBIN” value [2] of the same compound?
A: 23.73 pg

Q: And the “MEAN CORPUSCULAR HEMOGLOBIN CONCENTRATION” value [2]?
A: 38.63 G/DL

Q: And the “MEAN CORPUSCULAR VOLUME” value [2]?
A: 61.37 fL

Q: And the MONOCYTE [2]?
A: 1.67%

Q: What about the NEUTROPHIL [2] of the same compound?
A: 13.33%

Q: What about the “NUCLEATED RED BLOOD CELLS” value [2] of the same compound?
A: 0 /100WBC

Q: And the “PLATELET COUNT” value [2]?
A: 1067.33 x10E3/uL

Q: And the “ALANINE AMINOTRANSFERASE” value [2]?
A: 82.33 u/L

Q: What about the ALBUMIN [2] of the same compound?
A: 4.4 G/DL

Q: And the “ALKALINE PHOSPHATASE” value [2]?
A: 525.33 u/L

Q: And the “ASPARTATE AMINOTRANSFERASE” value [2]?
A: 118.33 u/L

Q: What about the “BLOOD UREA NITROGEN” value [2] of the same compound?
A: 13.33 mg/dL

Q: And the “CARBON DIOXIDE” value [2]?
A: 33 mmol/L

Q: And the CHLORIDE [2]?
A: 98.33 MEQ/L

Q: What about the CHOLESTEROL [2] of the same compound?
A: 39 mg/dL

Q: And the “CREATINE PHOSPHOKINASE” value [2]?
A: 203.67 u/L

Q: And the CREATININE [2]?
A: 0.14 mg/dL

Q: What about the GLUCOSE [2] of the same compound?
A: 149.33 mg/dL

Q: What about the “LACTATE DEHYDROGENASE” value [2] of the same compound?
A: 172.67 u/L

Q: What about the LIPASE [2] of the same compound?
A: 8 u/L

Q: What about the PHOSPHORUS [2] of the same compound?
A: 11.27 mg/dL

Q: And the POTASSIUM [2]?
A: 6.66 MEQ/L

Q: And the SODIUM [2]?
A: 140.57 MEQ/L

Q: What about the “TOTAL BILIRUBIN” value [2] of the same compound?
A: 0.17 mg/dL

Q: And the “TOTAL PROTEIN” value [2]?
A: 5.33 G/DL

Q: And the “URIC ACID” value [2]?
A: 1.37 mg/dL

Q: What about the “ABSOLUTE BASOPHIL” value [3] of the same compound?
A: 0 CELLS/uL

Q: What about the “ABSOLUTE EOSINOPHIL” value [3] of the same compound?
A: 0 CELLS/uL

Q: What about the “ABSOLUTE LYMPHOCYTE” value [3] of the same compound?
A: 14966.67 CELLS/uL

Q: What about the “ABSOLUTE MONOCYTE” value [3] of the same compound?
A: 437.33 CELLS/uL

Q: And the “ABSOLUTE SEGMENTED NEUTROPHIL” value [3]?
A: 2729.33 CELLS/uL

Q: And the BASOPHIL [3]?
A: 0%

Q: And the EOSINOPHIL [3]?
A: 0%

Q: And the “ERYTHROCYTE COUNT” value [3]?
A: 5.64 x10E6/uL

Q: And the HEMATOCRIT [3]?
A: 35.03%

Q: What about the HEMOGLOBIN [3] of the same compound?
A: 13.4 G/DL

Q: And the “LEUKOCYTE COUNT” value [3]?
A: 18.13 x10E3/uL

Q: What about the LYMPHOCYTE [3] of the same compound?
A: 82.67%

Q: And the “MEAN CORPUSCULAR HEMOGLOBIN” value [3]?
A: 23.77 pg

Q: What about the “MEAN CORPUSCULAR HEMOGLOBIN CONCENTRATION” value [3] of the same compound?
A: 38.27 G/DL

Q: And the “MEAN CORPUSCULAR VOLUME” value [3]?
A: 62.17 fL

Q: What about the MONOCYTE [3] of the same compound?
A: 2.33%

Q: And the NEUTROPHIL [3]?
A: 15%

Q: What about the “NUCLEATED RED BLOOD CELLS” value [3] of the same compound?
A: 0 /100WBC

Q: And the “PLATELET COUNT” value [3]?
A: 1012.67 x10E3/uL

Q: And the “ALANINE AMINOTRANSFERASE” value [3]?
A: 61 u/L

Q: What about the ALBUMIN [3] of the same compound?
A: 4.6 G/DL

Q: And the “ALKALINE PHOSPHATASE” value [3]?
A: 409.33 u/L

Q: And the “ASPARTATE AMINOTRANSFERASE” value [3]?
A: 90.67 u/L

Q: What about the “BLOOD UREA NITROGEN” value [3] of the same compound?
A: 17.33 mg/dL

Q: What about the “CARBON DIOXIDE” value [3] of the same compound?
A: 28.33 mmol/L

Q: What about the CHLORIDE [3] of the same compound?
A: 106.67 MEQ/L

Q: And the CHOLESTEROL [3]?
A: 46.33 mg/dL

Q: What about the “CREATINE PHOSPHOKINASE” value [3] of the same compound?
A: 195.67 u/L

Q: And the CREATININE [3]?
A: 0.19 mg/dL

Q: And the GLUCOSE [3]?
A: 158 mg/dL

Q: What about the “LACTATE DEHYDROGENASE” value [3] of the same compound?
A: 194.33 u/L

Q: And the LIPASE [3]?
A: 9.33 u/L

Q: And the PHOSPHORUS [3]?
A: 9.7 mg/dL

Q: And the POTASSIUM [3]?
A: 6.4 MEQ/L

Q: And the SODIUM [3]?
A: 149.4 MEQ/L

Q: What about the “TOTAL BILIRUBIN” value [3] of the same compound?
A: 0.1 mg/dL

Q: What about the “TOTAL PROTEIN” value [3] of the same compound?
A: 5.63 G/DL

Q: And the “URIC ACID” value [3]?
A: 1.5 mg/dL
